The values that follow come from patent US20150038707A1, “PROCESS FOR MAKING CGRP RECEPTOR ANTAGONISTS” (Merck Sharp & Dohme Corp., priority 2012, published 2015).

Experiment [1] has as its system An. Vestitipennis. The note with it: stated as identical to night one of compound 1405; cited from earlier work.
Experiment [2] relates to female Aedes aegypti (Thailand strain) mosquitoes. Kind of experiment: Contact irritancy assay on mosquitoes (Example 2). The format is in vivo. The note with it: netting treated at 0.0025-2.5 nmol/cm^2; 10 minutes. The procedure:
(§1) Four compounds of formula (I) were tested for contact irritancy (i.e., movement away from the source after physical contact) at low doses on female Aedes aegypti (Thailand strain) mosquitoes. The contact irritant response was determined by use of the contact irritant assay disclosed by Grieco et al. in “A New Classification System for the Actions of IRS Chemicals Traditionally Used for Malaria Control,” Plos One, Issue 8 (2007) (available at www.plosone.org). The assay used was a cylindrical assembly that included a metal treatment end to which 10 mosquitoes were introduced and a clear receiving chamber. The treatment end included a netting strip (nylon organdy) that was treated with the insecticide of interest at the relevant dose. A butterfly valve separated the treatment end from the remainder of the assembly.
(§2) Each composition was applied to the netting strip at a varied dose via a 1.5 ml acetone solution. Four (4) treatment concentrations were used—0.0025 nmol/cm^2, 0.025 nmol/cm^2, 0.25 nmol/cm^2 and 2.5 nmol/cm^2. Netting was allowed to dry for 15 minutes prior to placement in the cylinder. Control assays were performed with netting treated with acetone only.
(§3) For each run, 10 mosquitoes were transferred into the treatment end of the assembly and, after 30 seconds, the butterfly valve was opened. The valve was closed after 10 minutes and the number of mosquitoes in the clear end (i.e., the number of escaped mosquitoes) was tested.

The test system is the same in experiment [3]. Kind of experiment: Spatial repellency assay on mosquitoes (Example 3). The format is in vivo. The note with it: netting treated at 0.0025-2.5 nmol/cm^2. How it is done: (§4) The four compounds of formula I described in Example 2 were tested for spatial repellency (directed movement away from the chemical source without the insect making physical contact with the treated surface) at low doses on female Aedes aegypti (Thailand strain) mosquitoes. The spatial repellency response was determined by use of the spatial repellency assay disclosed by Grieco et al. in “A New Classification System for the Actions of IRS Chemicals Traditionally Used for Malaria Control” in Plos One, Issue 8 (2007) (available at www.plosone.org) which is incorporated herein by reference for all relevant and consistent purposes. The assay used was a cylindrical assembly that included a treatment chamber at one end and a control chamber at the other end. The treatment chamber included a netting strip (nylon organdy) that was treated with the insecticide of interest at the relevant dose. The treatment chamber and control chamber were connected by a clear cylinder and were separated from the clear cylinder by butterfly valves. Twenty (20) mosquitoes were introduced into the clear central chamber and the butterfly valves were opened after 30 seconds. After 10 minutes, the valves were closed and the number of mosquitoes in each chamber was counted.
The compositions were applied to the net strips by the same methods and at the same concentrations as described in Example 2 above. […]

Experiment [4] has the same test system. The experiment can be described thus: Contact irritancy and spatial repellency screening (Example 4). In kind it is in vivo. To be noted: Dosage 25 nmol/cm^2; mapped with 3000 other compounds. How it is done:
as §1, §4
Dosage was 25 nmol/cm^2. Several known compounds were also mapped for comparison—alphacypermethrin, cypermethrin, propoxur, bendiocarb, permethrin, SS220, DDT, deet and chlorpyrifos.

In experiment [5] the test system is Ae. Aegypti, That strain (pyrethroid tolerant). The experiment can be described thus: Contact irritancy on pyrethroid tolerant mosquitoes (Example 5). The format is in vivo. How it is done: as §1, §2, §3
(§5) The contact irritancy protocol of Example 2 was used to determine contact irritancy against mosquitoes (Ae. Aegypti) that had acquired metabolic resistance against pyrethroids. Alphacypermethrin and transfluthrin were also tested. Three mosquito strains were tested—Houston which is pyrethroid susceptible, That which is pyrethroid tolerant and Isla Mujer which is metabolically pyrethroid resistant.

Experiment [6] has as its system Ae. Aegypti, Isla Mujer strain (metabolically pyrethroid resistant). Kind of experiment: Contact irritancy on metabolically resistant mosquitoes (Example 5). In kind it is in vivo. How it is done: as §1, §2, §3, §5
Experiment [7] deals with Ae. Aegypti strains Houston, That and Isla Mujer. Kind of experiment: Spatial repellency on metabolically resistant mosquitoes (Example 6). The format is in vivo. How it is done: as §4
The spatial repellency protocol of Example 3 was used to determine spatial repellency against mosquitoes (Ae. Aegypti) that had acquired metabolic resistance against pyrethroids. DDT and transfluthrin were also tested. Three mosquito strains were tested—Houston which is pyrethroid susceptible, That which is pyrethroid tolerant and Isla Mujer which is metabolically pyrethroid resistant.

Experiment [8] relates to Ae. aegypti Houston strain (pyrethroid susceptible). The experiment can be described thus: Toxicity assay on treated netting (Example 7), Houston strain. In kind it is in vivo. How it is done: (§6) Several compounds were tested to determine their toxic effect on Ae. aegypti mosquitoes. Three mosquito strains were tested—Houston which is pyrethroid susceptible, That which is pyrethroid tolerant and Isla Mujer which is metabolically pyrethroid resistant.
(§7) The toxicity assay involved a single chamber to which treated netting was added. Twenty (20) mosquitoes were transferred to the chamber. After 1 hour, the number of knocked down mosquitoes was recorded and all mosquitoes were transferred to holding cartoons. The mosquitoes were given a 10% sucrose-soaked cotton ball and returned to the insectary. Mortaility was measured after 24 hours. A control assay using acetone-treated netting was used. Six replicates were performed at each treatment concentration.

Experiment [9] concerns Ae. aegypti Thai strain (pyrethroid tolerant). Kind of experiment: Toxicity assay on treated netting (Example 7), Thai strain. The format is in vivo. The procedure:
as §6, §7

The test system of experiment [10] is Ae. aegypti Isla mujeres strain (metabolically pyrethroid resistant). The experiment can be described thus: Toxicity assay on treated netting (Example 7), Isla mujeres strain. The format is in vivo. How it is done:
as §6, §7

Setting [11] is: Dose 0.025 nm/cm^2, Time 1 hour.
Where [12] appears, read: Dose 0.025 nm/cm^2, Time 24 hours.
Setting [13] is: Dose 0.05 nm/cm^2, Time 24 hours.
Setting [14] is: Dose 0.0725 nm/cm^2, Time 1 hour.
The mark [15] stands for this setting: Dose 0.0725 nm/cm^2, Time 24 hours.
The mark [16] stands for this setting: Dose 0.1 nm/cm^2, Time 24 hours.
Where [17] appears, read: Dose 0.125 nm/cm^2, Time 1 hour.
[18] abbreviates: Dose 0.125 nm/cm^2, Time 24 hours.
The mark [19] stands for this setting: Dose 0.2 nm/cm^2, Time 24 hours.
The mark [20] stands for this setting: Dose 0.25 nm/cm^2, Time 24 hours.
Setting [21] is: Dose 2.5 nm/cm^2, Time 24 hours.

Turning to `Clc1ccc(C(c2ccc(Cl)cc2)C(Cl)(Cl)Cl)cc1` [DDT, dichlorodiphenyltrichloroethane], in experiment [1], the “reduction in entering populations observed with DDT” value is recorded as 97%.
For the compound `CC1(C)C(C=C(F)F)C1C(=O)OCc1ccc(F)c(C(F)(F)F)c1F` (stereo not shown) [Compound 1403], the “contact irritancy (FIG. 1)” value in experiment [2] is on record as “showed contact irritancy at relatively low doses”. In addition, the “spatial repellency, dose compared with DDT (FIG. 2)” value in experiment [3] is given as “showed repellency at a lower dose than DDT”. Further, in experiment [4], the “contact irritancy and spatial repellency relative to screened compounds (FIG. 3)” value is “superior contact irritancy and spatial repellency relative to most screened compounds”. The “contact irritancy, tolerant strain (FIG. 4)” value in [5] is listed as “contact irritants for tolerant strains”. The “contact irritancy, resistant strain (FIG. 4)” value in experiment [6] was “effective in resistant strains”. Also, the “spatial repellency, all strains (FIG. 5)” value in [7] was “spatial repellants for all strains”. In addition, the “Houston (% dead (SE))” value in experiment [8] (setting [11]) amounted to 11.76%; in experiment [8] (setting [12]), 15.57%; in experiment [8] (Dose 0.05 nm/cm^2, Time 1 hour), 51.3%; in [8] (setting [13]) it was 41.18%; in [8] (setting [14]) it was 100%; in [8] (setting [15]) it was 100%. Moreover, the “Houston (% dead (SE))” value in experiment [8] (Dose 0.1 nm/cm^2, Time 1 hour) came out at 100%; in [8] (setting [16]), 100%; in experiment [8] (setting [17]) it was 100%; in experiment [8] (setting [18]) it was 100%; in experiment [8] (Dose 0.2 nm/cm^2, Time 1 hour), 100%; in experiment [8] (setting [19]) it was 100%. Further, the “Houston (% dead (SE))” value amounted to 100% in experiment [8] (Dose 0.25 nm/cm^2, Time 1 hour); 100% in [8] (setting [20]); 100% in experiment [8] (Dose 2.5 nm/cm^2, Time 1 hour); 100% in [8] (setting [21]). Also, the “Thai (% dead (SE))” value in experiment [9] (setting [11]) worked out at 15%; in [9] (setting [12]), 0%; in experiment [9] (Dose 0.25 nm/cm^2, Time 1 hour), 100%; in experiment [9] (setting [20]) it was 100%; in [9] (Dose 2.5 nm/cm^2, Time 1 hour), 100%; in experiment [9] (setting [21]) it was 100%. The “Isla mujeres (% dead (SE))” value is 0% in experiment [10] (setting [11]); 1.58% in experiment [10] (setting [12]); 0% in experiment [10] (Dose 0.05 nm/cm^2, Time 1 hour); 5.93% in experiment [10] (setting [13]); 0% in [10] (setting [14]); 3.70% in experiment [10] (setting [15]). In addition, the “Isla mujeres (% dead (SE))” value in experiment [10] (Dose 0.1 nm/cm^2, Time 1 hour) worked out at 0%; in experiment [10] (setting [16]), 5.00%; in [10] (setting [17]), 0%; in experiment [10] (setting [18]), 6.00%; in experiment [10] (Dose 0.2 nm/cm^2, Time 1 hour), 70%; in experiment [10] (setting [19]), 20%. For the same compound, the “Isla mujeres (% dead (SE))” value worked out at 100% in experiment [10] (Dose 0.25 nm/cm^2, Time 1 hour); 100% in experiment [10] (setting [20]); 100% in experiment [10] (Dose 2.5 nm/cm^2, Time 1 hour); 100% in [10] (setting [21]). Also, the “toxicity to resistant populations compared with standard compounds” value in experiment [10] (summary of Table 2) is “more toxic to resistant populations than permethrin, matfluthrin and transfluthrin”.
